# Key:
# splenic T cells [1] = assay: Platform generation in T cells after AICD induction; details: 500 nM; not shown
# C57BL/6 splenocytes [2] = assay: Platform generation on target splenocytes coincubated with MLR-primed CTLs; details: 500 nM
# C57BL/6 hepatocytes [3] = format: cell-based; details: not shown
# Experimental: Whereas Fas-mediated apoptotic death receptor activation requires generation of ceramide-rich platforms in some cell systems, CTL-induced platform generation was assessed in asmase^+/+ and asmase^−/− hepatocytes in the ex vivo model of GvHD. Alloactivated T cells induced rapid generation of ceramide-rich platforms on the surface of the target hepatocytes 10 min following co-incubation (FIG. 16C). Platform generation increased within one minute, peaked at 10 min, and persisted for over 60 min (FIG. 16D). Fas, required for apoptosis in this system, concentrated within the ceramide-rich platform as determined by confocal microscopy.
# Platforms were detected as previously described. […]; Sigma-Aldrich) for 45 min at 4° C., washed twice in PBS containing 0.1% Triton X-100 and mounted in fluorescent mounting medium (Dako, Carpenteria CA). Fluorescence was detected using an Axiovert S-100 Zeiss fluorescence microscope equipped with a SPOT digital camera. The percentage of cells containing platforms, i.e. those in which the fluorescence condenses onto less than 15% of the cell surface, was determined by counting 150-250 cells per point. Alternately, platforms were identified using a mouse monoclonal anti-ceramide antibody MID 15B4 IgM (1:50 dilution, Alexis Biochemicals), mouse monoclonal anti-Fas CH-11 IgM (1:500 dilution, Upstate Biotechnology) or polyclonal rabbit anti-ASMase antibody 1598 (1:100 dilution) and detected using Cy3-conjugated anti-mouse or anti-rabbit IgM (1:500 dilution, Roche Molecular Biochemicals), respectively. Rabbit polyclonal anti-CD46 (1:1000 dilution, Santa Cruz Biotechnology, Santa Cruz CA) was used as a negative control. In some studies, confocal images were obtained using a Leica TCS SPZ upright confocal microscope. Alternatively, 0.5×10^6hepatocytes were stimulated for the indicated times with CTLs and platform formation was assessed as described.
# splenic T cells [4] = assay: Activation-induced cell death (AICD) assay, T cell apoptosis; format: cell-based, mouse; details: 500 nM; 16 hr
# Text: To define a role for target cell ASMase in AICD, asmase^+/+, asmase^−/− or MRL.1pr (FasR^−/−) T cells were stimulated for 24 hr with 10 microgam/ml ConA, washed, rested in medium containing 20 U/ml rIL-2 for 24 hr, and finally AICD was initiated by restimulation in medium containing 20 U/ml rIL-2 and increasing concentrations of plate bound anti-CD3 mAb for 24 hr. AICD induction by anti-CD3 mAb conferred ceramide-rich platform generation 4 hr following stimulation (FIG. 19D), evident in 26.4±1.6% of the population of asmase^+/+ T cells compared to 5.1±1.0% of asmase^−/− T cells (p<0.005). Confocal analysis identified colocalization of the sphingolipid GM1 (FIG. 19E) and Fas within ceramide-rich platforms in asmase^+/+ T cells.
# To characterize the impact of platform generation on AICD, asmase^+/+ and asmase^−/− T cells were induced to undergo AICD and apoptosis was quantified 16 hr thereafter. Apoptosis in asmase^+/+ T cells was anti-CD3 mAb dose-dependent, reaching 32.9±5.2% apoptosis 16 hr post induction (FIG. 19F). […]
# Harvested splenocytes were enriched for T lymphocytes by nylon wool passage, resulting in >90% purity based upon FITC-CD3 mAb staining by flow cytometry. […] Cells were subsequently fixed, stained with 25 μl of 24 μg/ml bis-benzimide trihydrochloride solution (Hoechst #33258; Sigma-Aldrich, Milwaukee Wisc.) and apoptosis was quantified by fluorescence microscopy, as above.
# C57BL/6 splenocytes [5] = assay: MLR-primed CTL-induced splenocyte lysis (51Cr release); format: cell-based, mouse; details: 500 nM
# Experimental: To show the generic role of target cell ASMase in T cell-induced lysis, we used two standardized assays for T cell function; MLR-primed CTL-induced splenocyte lysis (FIG. 17) and in vitro activation-induced cell death (AICD) of T cells (FIG. 18). The role of target cell ASMase was assessed in an in vitro activated MLR, in which C57BL/6 splenocyte target cells of asmase^+/+ or asmase^−/− genotype were stimulated for 48 hrs with mitogen, washed and chromium labeled. These cells were then coincubated with effector Balb/c splenocytes activated for 5 days by culture with irradiated C57BL/6 splenocytes. Chromium release was quantified and the % lysis was calculated. […] Washed splenocytes cells were coincubated with increasing ratios of activated effector Balb/c T cells, and ^51Cr release was quantified 6 hour thereafter. […]
# To evaluate a potential generic role for target cell ASMase in platform generation in T cell-induced lysis, we tested two standardized assays for T cell-mediated cytolysis, MLR-primed CTL-induced splenocyte lysis, and in vitro AICD of T cells. […] Furthermore, MLR-primed CTLs induced 43.2±6.5% asmase^+/+ splenocyte lysis at an effector:target ratio of 50:1 (FIG. 19B), attenuated to 7.3±2.5% lysis in asmase^−/− target cells, as quantified by ^51Cr-release assay. […]
# C57BL/6 hepatocytes [6] = format: cell-based
# Experimental: FIGS. 16A-16F. In vivo activated allogeneic CTLs require target hepatocyte ASMase for efficient killing ex vivo. Hepatocytes, isolated as described in Example 1, were coincubated with splenic T cells harvested from lethally-irradiated wild type C57BL/6 recipients 10-14 days following transplantation of LP BM+T cells. FIG. 16A: 2×10^6 GvH-activated CTLs were coincubated with 0.5×10^6 wild type C57BL/6 or B6.MRL.1pr (FasR^−/−) hepatocytes (left panel) in complete medium for 16 hr. […] Apoptosis was quantified following fixation by nuclear bisbenzimide staining. FIG. 16B: asmase^−/− hepatocytes are resistant to apoptosis induced by GvH-activated CTLs. CTL coincubation was performed as in FIG. 16A and apoptosis was quantified 16 hr thereafter. FIG. 16C: Representative images of asmase^+/+ (top left panel) and asmase^−/− (bottom left panel) C57BL/6 hepatocytes following 10 min coincubation in suspension with 2×10^6 GvH-activated T cells. Hepatocytes were fixed and stained with DAPI and Cy-3-labelled anti-ceramide mAb as described in Example 1. Arrows indicate ceramide-rich platform generation on the outer leaflet of the plasma membrane. […] FIG. 16D: Quantification of ceramide-rich platforms in asmase^+/+ and asmase^−/− hepatocytes following incubation with 2×10^6 GvH-activated CTLs. […] Apoptosis was quantified as in FIG. 16A. […] 0.5×10^6 wild type hepatocytes, preincubated with 50 μg/mL nystatin for 30 min and resuspended in RPMI containing 1% lipid-free FBS, were coincubated with 2×10^6 GvH-activated T cells and apoptosis was quantified as in FIG. 16A. […]
# To assess whether ceramide-mediated raft clustering into membrane platforms is an essential component of cytolytic T cell (CTL)-induced apoptosis of hepatocytes, we blocked raft clustering pharmacologically and examined the impact on alloactivated CTL-induced hepatocyte apoptosis in vitro. […] Co-incubation induced increased hepatocyte apoptosis from a baseline of 4.7±0.7% to 33.8±1.9% by 16 hr, as detected by nuclear morphologic changes (FIG. 16A). […]
# C57BL/6 mice = details: intravenous, prior to TBI; cited from earlier work
compound,measurement,setting,value
CCCCCCCCCCCCCCCC(=O)N[C@@H](CO)[C@H](O)CCCCCCCCCCCCCCC [C16-dihydroceramide],platform generation in asmase−/− T cells stimulated to undergo AICD,splenic T cells [1],not
same,platform generation on asmase−/− target splenocytes,C57BL/6 splenocytes [2],ineffective
same,CTL-induced platform generation in asmase−/− hepatocytes,C57BL/6 hepatocytes [3],failed to restore
same,apoptosis of asmase−/− T cells stimulated to undergo AICD,splenic T cells [4],not
same,CTL-induced lysis of asmase−/− target splenocytes,C57BL/6 splenocytes [5],ineffective
"C/C=C/[C@H]1O[C@@](O)([C@@H](C)[C@H](O)[C@H](C)[C@H]2OC(=O)/C(OC)=C/C(C)=C/[C@@H](C)[C@@H](O)[C@@H](CC)[C@@H](O)[C@H](C)C/C(C)=C/C=C/[C@@H]2OC)C[C@@H](O[C@H]2C[C@@H](O)[C@H](OC(N)=O)[C@@H](C)O2)[C@@H]1C [CMA, concanamycin A]",CTL-induced hepatocyte apoptosis,"C57BL/6 hepatocytes [6]; CTLs incubated 2 hr with 100 ng/ml CMA, wild type hepatocytes, 16 hr",no effect
C[C@@H]1[C@H](O)[C@@H](C)/C=C/C=C/CC/C=C/C=C/C=C/C=C/C(O[C@H]2O[C@H](C)[C@@H](O)[C@H](N)[C@@H]2O)CC2O[C@](O)(CC(O)C(O)CCC(O)CC(O)CC(O)CC(=O)O[C@H]1C)CC(O)C2C(=O)O (some centres unmarked) [nystatin],2×10^6 alloactivated CTL-induced hepatocyte apoptosis,C57BL/6 hepatocytes [6]; wild type hepatocytes preincubated with 50 μg/mL nystatin for 30 min,completely inhibited
same,CTL-induced ceramide-rich platform generation,"C57BL/6 hepatocytes [3]; wild type hepatocytes, nystatin 50 μg/mL 30 min",abrogated
bFGF: endothelial cell survival factor,crypt stem cell clonogens,C57BL/6 mice,preserved
same,lethality from the GI syndrome,C57BL/6 mice,protected
same,radiation-induced endothelial apoptosis of the intestinal microvascular system,C57BL/6 mice,attenuated

# Reference: US12121525B2, “Methods for treating GI syndrome and graft versus host disease” (Sloan Kettering Institute for Cancer Research, priority 2007, dated 2024)
